Consider 2 molecules from ChEMBL document CHEMBL3112495, “Diphenylpyridylethanamine (DPPE)-based aminoheterocycles as cholesteryl ester transfer protein inhibitors” (Bioorg Med Chem Lett, 2014).

Data set [1] in a line: Plasma concentration in hCETP/apo B-100 transgenic mouse at 30 mg/kg, po after 4 hrs. Type of data set: ADME, organism-based. Details: dose 30 mg/kg, route oral.
For another data set, the system named is Mus musculus. Briefly: Inhibition of CETP in hCETP/apo B-100 transgenic mouse at 30 mg/kg, po after 8 hrs. Type of data set: functional.
A short description of data set [2]: Plasma concentration in hCETP/apo B-100 transgenic mouse at 30 mg/kg, po after 2 hrs. Type of data set: ADME, organism-based. Also on record: dose 30 mg/kg, route oral.
Data set [3] in a line: AUC in hCETP/apo B-100 transgenic mouse at 30 mg/kg, po. Type of data set: ADME, organism-based. Conditions: plasma. Also on record: dose 30 mg/kg, route oral.
The nature of data set [4]: Metabolic stability of the compound in human liver microsomes assessed as compound remaining after 10 mins. In kind it is ADME. Conditions: read-out: Stability.
A short description of data set [5]: Metabolic stability of the compound in mouse liver microsomes assessed as compound remaining after 10 mins. Type of data set: ADME, Microsome. Conditions: read-out: Stability. For orientation: Liver microsomes are a subcellular fraction often used to study metabolism.
The target in data set [6] is T1, Cholesteryl ester transfer protein (Homo sapiens, UniProt P11597).
T1 sequence (P11597 whole entry): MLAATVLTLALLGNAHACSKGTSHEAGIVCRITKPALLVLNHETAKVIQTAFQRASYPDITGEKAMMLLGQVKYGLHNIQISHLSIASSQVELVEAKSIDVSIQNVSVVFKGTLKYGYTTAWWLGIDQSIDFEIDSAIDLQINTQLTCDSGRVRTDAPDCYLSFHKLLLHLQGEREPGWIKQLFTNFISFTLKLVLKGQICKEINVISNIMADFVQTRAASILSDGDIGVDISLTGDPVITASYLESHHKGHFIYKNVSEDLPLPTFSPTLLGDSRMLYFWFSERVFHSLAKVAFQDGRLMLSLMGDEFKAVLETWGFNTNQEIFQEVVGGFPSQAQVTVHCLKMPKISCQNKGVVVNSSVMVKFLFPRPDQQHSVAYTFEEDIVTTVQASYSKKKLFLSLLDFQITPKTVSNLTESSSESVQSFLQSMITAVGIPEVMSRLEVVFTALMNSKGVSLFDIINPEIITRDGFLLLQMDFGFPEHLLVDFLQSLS
The data set can be described thus: Inhibition of CETP in human whole plasma using [3H]-CE/HDL after 10 mins.

Data set [7] addresses T1, Cholesteryl ester transfer protein. The data set can be described thus: Inhibition of human recombinant CETP using [3H]-CE/HDL by scintillation proximity assay.
A short description of data set [8]: Plasma concentration in hCETP/apo B-100 transgenic mouse at 30 mg/kg, po after 8 hrs. Type of data set: ADME, organism-based. Also on record: dose 30 mg/kg, route oral.
Data set [9] is described as follows: Metabolic stability of the compound in rat liver microsomes assessed as compound remaining after 10 mins. Type of data set: ADME. Conditions: read-out: Stability.

Take `O=C(NC1CCCC1)N[C@@](Cc1ccccc1)(c1cc(F)cc(C(F)(F)F)c1)c1ccc(Cl)cn1`: in data set [1], the concentration at 4 h came to 1010 nM. Further, at 30 mg/kg the inhibition in vivo with Mus musculus was 56%. This molecule also displayed a concentration at 2 h in data set [2] of 1750 nM. This molecule came in with an AUC in [3] of 5.71 µM·h.
With `Fc1cc(C(F)(F)F)cc([C@@](Cc2ccccc2)(Nc2nc3c(s2)CCC3)c2ccc(Cl)cn2)c1`, the concentration at 4 h in [1] came to 1240 nM. Further, the remaining at 10 min came out at 73% in data set [4], 33% in data set [5] and 56% in data set [9]. The IC50 in data set [6] is 8.2 µM; in data set [7] it was 40 nM. The molecule further returned an inhibition in vivo at 30 mg/kg with Mus musculus of 26%. For the same molecule, the concentration at 2 h in [2] was found to be 2530 nM. Further, in data set [8], the concentration at 8 h was 142 nM. Besides, the AUC in data set [3] worked out at 8.18 µM·h.

One may read the inhibition in vivo as the change of the read-out against control, counted positive when it falls. Usually AUC stands for the area under the concentration-time curve, a measure of exposure. The low end stands for less exposure, the high end for more exposure. By IC50 is commonly meant the concentration at which inhibition is half-maximal.
